# Reference: US10442793B2, “Oxa spiro derivative, preparation method therefor, and applications thereof in medicines” (Jiangsu Hengrui Medicine Co., Ltd., priority 2015, dated 2019)
# Like-named read-outs stand apart in the source and are kept apart here.
# Tests used:
# Assay type in all cases: cell-based
# [1] = biological target: T1, MOR receptor (Homo sapiens, UniProt P35372); assay: Activation of the β-arrestin signaling pathway of MOR receptor (CHO-K1 OPRM1 β-Arrestin cells, DiscoveRX); settings: for Emax: maximum effect of morphine is 100%
# T1 construct: host or cells: CHO-K1
# T1 sequence (P35372 whole entry): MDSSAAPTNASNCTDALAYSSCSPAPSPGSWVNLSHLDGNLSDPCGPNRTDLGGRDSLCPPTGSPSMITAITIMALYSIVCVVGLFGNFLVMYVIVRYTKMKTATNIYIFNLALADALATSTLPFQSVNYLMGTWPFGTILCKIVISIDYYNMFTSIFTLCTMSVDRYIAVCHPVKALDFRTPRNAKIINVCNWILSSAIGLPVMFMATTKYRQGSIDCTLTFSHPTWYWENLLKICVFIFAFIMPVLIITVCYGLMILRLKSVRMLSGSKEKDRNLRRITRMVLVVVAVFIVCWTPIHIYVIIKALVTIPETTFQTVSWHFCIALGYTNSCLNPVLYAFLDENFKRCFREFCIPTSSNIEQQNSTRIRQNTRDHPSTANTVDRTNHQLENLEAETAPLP
# Description: The experiment objective is to determine the activity of the compounds of the present invention on activating the β-arrestin signaling pathway of MOR receptor.
# The drug was prepared as a 20 mM stock solution that was later diluted with 100% DMSO to a 200×concentration gradient, and then diluted with a 20-fold AssayComplete™ Cell Plating 2 Reagent (93-0563R2B, DiscoveRX) medium. The cell culture plate inoculated on the first day was taken out, and 10 μl of the diluted drug or control (0.5% DMSO) was added to each well. The plate was gently shaken and placed in an incubator at 37° C., 5% CO2 for 90 minutes. Finally, 50 μL of a detection reagent (93-0001, DiscoveRX) were added to each well, and the plate was placed at room temperature for 60 minutes. The absorbance values were measured by the cold light model of a microplate reader (PE, Victor3). The EC50 values of the compounds were calculated by Graphpad Prism software according to each concentration of the compound and the corresponding signal value.
# [2] = biological target: T2, μ-opioid receptors (MOR) (Homo sapiens, UniProt P35372); assay: MOR activity test: HEK293/MOR/CRE luciferase reporter, agonizing MOR and affecting downstream cAMP levels; settings: for Emax: HEK293, maximum effect of TRV-130 is 100%, read-out: Emax on agonizing MOR receptor and affecting cAMP levels
# T2 construct: host or cells: HEK293
# T2 sequence (P35372 whole entry): as above
# From the text: The compounds of the present invention can activate μ-opioid receptors (MOR). Activated MOR can regulate intracellular cAMP levels, and cAMP enters the nucleus and binds to the CRE region of the reporter gene luciferase, thereby initiating the expression of the reporter gene. Luciferase can react with its substrate to emit fluorescence, and the measured fluorescence signals reflect the agonistic activity of the compounds.
# The activity of the test example compounds on agonizing MOR and affecting downstream cAMP levels was tested by the following method.
# MOR/pcDNA3.1 (+) and CRE/pGL4.29 were transferred into HEK293 cells. G418 and hygromycin were added into the culture medium, and HEK293/MOR/CRE monoclonal cell lines were screened in a 96-well cell culture plate.
# HEK293/MOR/CRE monoclonal cells were cultured in a DMEM/high glucose medium (10% FBS, 1 mg/ml G418, 200 μg/ml hygromycin, mixed uniformly), and passaged every 3 days. On the day of the experiment, a cell suspension was prepared with a fresh cell medium, added to a 96 well plate (BD, #356692) with 20,000 cells/well, and incubated in 5% CO2 at 37° C. On the second day, the compound was dissolved in pure DMSO at a concentration of 20 mM, then formulated with DMSO to a first concentration of 4 mM and diluted in 10 fold concentration gradient to 6 concentrations. Then, 90 μl of DMSO was added to blank and control wells. Then, formulated compound was prepared by adding 2.5 μl of the compound solutions formulated in DMSO at a gradient concentration to 97.5 μl of a fresh cell culture medium containing 5 μM foscolin. Then, 10 μl of the formulated compound was added to the cell culture plate to make the final concentration of the compound 10000, 1000, 100, 10, 1, 0.1, or 0.01 nM, and the plate was incubated at 37° C., in 5% CO2 for 5 hours. In a 96-well cell culture plate, 100 μl of luciferase assay solution (Promega, # E6110) was added to each well. The plate was placed in the dark at room temperature for 10-15 minutes, blowed and aspirated 10 times, and 100 μl were pipetted to a 96 well white plate. The chemiluminescence signal values were read in a microplate reader (PE, Victor3), and the read data was processed using software.
# The activity of the compounds of the present invention on agonizing MOR and affecting downstream cAMP levels was determined by the above test, and the EC50 values are shown in Table 1.1.
# [3] = biological target: T3, hERG potassium channel (Homo sapiens, UniProt Q12809); assay: Blocking of hERG potassium current, automatic patch clamp on HEK293-hERG cells
# T3 construct: expressed in transfected cells; host or cells: HEK293
# T3 sequence (Q12809 whole entry): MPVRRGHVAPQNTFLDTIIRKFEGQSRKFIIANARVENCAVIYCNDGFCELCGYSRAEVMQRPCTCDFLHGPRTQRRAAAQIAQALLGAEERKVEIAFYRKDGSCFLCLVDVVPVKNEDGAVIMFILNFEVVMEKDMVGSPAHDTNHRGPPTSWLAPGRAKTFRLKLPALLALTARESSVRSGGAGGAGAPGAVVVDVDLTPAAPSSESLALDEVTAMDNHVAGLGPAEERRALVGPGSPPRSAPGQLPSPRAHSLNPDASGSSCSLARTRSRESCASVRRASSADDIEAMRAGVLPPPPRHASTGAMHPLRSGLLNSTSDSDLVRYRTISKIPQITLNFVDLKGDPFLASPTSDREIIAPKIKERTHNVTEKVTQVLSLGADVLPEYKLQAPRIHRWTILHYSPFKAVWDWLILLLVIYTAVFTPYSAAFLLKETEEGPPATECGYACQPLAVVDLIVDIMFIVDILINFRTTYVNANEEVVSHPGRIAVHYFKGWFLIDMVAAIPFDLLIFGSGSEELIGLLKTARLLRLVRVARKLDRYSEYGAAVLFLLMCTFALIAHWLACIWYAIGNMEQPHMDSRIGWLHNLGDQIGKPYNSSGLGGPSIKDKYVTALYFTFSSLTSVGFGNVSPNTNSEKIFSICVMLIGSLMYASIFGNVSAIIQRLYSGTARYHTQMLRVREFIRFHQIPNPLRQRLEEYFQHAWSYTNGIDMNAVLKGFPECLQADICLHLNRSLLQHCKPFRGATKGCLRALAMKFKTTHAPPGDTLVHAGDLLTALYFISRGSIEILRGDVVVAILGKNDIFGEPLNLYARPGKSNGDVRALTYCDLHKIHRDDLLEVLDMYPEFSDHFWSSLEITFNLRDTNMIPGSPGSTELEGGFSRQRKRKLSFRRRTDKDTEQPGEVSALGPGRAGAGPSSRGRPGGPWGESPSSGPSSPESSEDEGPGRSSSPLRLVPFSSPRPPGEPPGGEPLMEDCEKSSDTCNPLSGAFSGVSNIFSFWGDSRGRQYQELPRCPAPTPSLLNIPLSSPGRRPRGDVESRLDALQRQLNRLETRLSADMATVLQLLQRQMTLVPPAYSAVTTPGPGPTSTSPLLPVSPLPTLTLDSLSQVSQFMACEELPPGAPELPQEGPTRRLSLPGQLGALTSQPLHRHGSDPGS
# Description: The blocking effect of the compounds of the present invention and the positive compound TRV-130 (Journal of Pharmacology and Experimental Therapeutics, Volume 344, Issue 3, Pages 708-717, 2013) on hERG potassium current was tested on a stable cell line transfected with hERG potassium channel using an automatic patch clamp.
# HEK293-hERG stabilized cells were subcultured at a density of 1:4 in a MEM/EBSS medium (10% FBS, 400 μg/ml G418, 1% MEM nonessential amino acid solution (100×), 1% sodium pyruvate solution) for 48-72 hours, then the automatic patch clamp experiment was performed. The cells were digested with 0.25% trypsin on the day of the experiment, then the cells were collected by centrifugation and resuspended with extracellular fluid (140 mM NaCl, 4 mM KCl, 1 mM MgCl2, 2 mM CaCl2, 5 mM D-glucose monohydrate, 10 mM Hepes, pH 7.4, 298 mOsmol) into a cell suspension. The cell suspension was placed on the cell bank of the Patchliner instrument, and the cells were added to the chip (NPC-16) by the negative pressure controller of the Patchliner instrument, with negative pressure attracting individual cells to the small hole of the chip. After the whole cell model was formed, the instrument generated the hERG current according to the preset hERG current and voltage program, and then the instrument perfused the compound from low concentration to high concentration automatically. HEAK Patchmaster, HEAK EPC10 patch clamp amplifier (Nanion), Pathliner software, and a data analysis software provided by Pathcontrol HTsoftware were used to analyze the current of the compounds at different concentrations and the current of the blank control.
# The blocking effect of the compounds of the present invention on hERG potassium current was determined by the above test, and the IC50 values are shown in Table 3.
# [4] = biological target: T4, DOR receptor (Homo sapiens, UniProt P41143); assay: DOR activity test: HEK293/DOR/CRE luciferase reporter, cAMP levels; settings: for Emax: HEK293, maximum effect of morphine is 100%
# T4 construct: expressed in transfected cells; host or cells: HEK293
# T4 sequence (P41143 whole entry): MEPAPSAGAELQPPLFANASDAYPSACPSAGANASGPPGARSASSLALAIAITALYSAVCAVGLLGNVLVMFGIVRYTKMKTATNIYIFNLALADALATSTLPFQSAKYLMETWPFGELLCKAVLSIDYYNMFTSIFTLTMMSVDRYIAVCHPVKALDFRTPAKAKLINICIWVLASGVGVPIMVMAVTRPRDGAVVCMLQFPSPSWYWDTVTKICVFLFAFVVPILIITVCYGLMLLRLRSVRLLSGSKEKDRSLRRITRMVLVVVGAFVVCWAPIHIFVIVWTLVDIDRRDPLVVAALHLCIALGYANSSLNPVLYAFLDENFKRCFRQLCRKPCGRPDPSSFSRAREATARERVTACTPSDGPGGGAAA
# Description: (§1) The experiment objective is to determine the activity of the compounds of the present invention on agonizing KOR receptor and DOR receptor, and affecting downstream cAMP levels.
# (§2) 90 μl of HEK293/KOR/CRE or HEK293/DOR/CRE (CRE cDNA purchased from Promega, product number E8471, KOR cDNA and DOR cDNA were constructed by our company) cells were inoculated in a 96-well plate with a density of 1×10^4 cells/well. Then, the cells were incubated overnight at 37° C., in 5% CO2. The drug was prepared as a 20 mM stock solution that was later diluted with 100% DMSO to a 200×concentration gradient, and then diluted with a 20-fold DMEM/high glucose (SH30243.01B, Hyclone) medium. The cell culture plate inoculated on the first day was taken out, and […] of the diluted drug or control (0.5% DMSO) was added to each well. The plate was gently shaken and placed in a incubator at 37° C., 5% CO2 for 4 hours. Finally, 100 μl of a detection reagent ONE-Glo (E6120, Promega) was added to each well, and the plate was placed at room temperature for 5 minutes. The absorbance value was measured by the cold light model of a microplate reader (PE, Victor3). The EC50 value of the compound was calculated by Graphpad Prism software according to each concentration of the compound and the corresponding signal value. Emax is the maximum effect of the compound on cAMP level changes.
# (§3) The activity of the compounds of the present invention on agonizing KOR receptor or DOR receptor and affecting downstream cAMP levels was determined by the above test, and the EC50 values are shown in Table 1.2.
# [5] = biological target: T5, KOR receptor (Homo sapiens, UniProt P41145); assay: KOR activity test: HEK293/KOR/CRE luciferase reporter, cAMP levels; settings: for Emax: HEK293, maximum effect of morphine is 100%
# T5 construct: expressed in transfected cells; host or cells: HEK293
# T5 sequence (P41145 whole entry): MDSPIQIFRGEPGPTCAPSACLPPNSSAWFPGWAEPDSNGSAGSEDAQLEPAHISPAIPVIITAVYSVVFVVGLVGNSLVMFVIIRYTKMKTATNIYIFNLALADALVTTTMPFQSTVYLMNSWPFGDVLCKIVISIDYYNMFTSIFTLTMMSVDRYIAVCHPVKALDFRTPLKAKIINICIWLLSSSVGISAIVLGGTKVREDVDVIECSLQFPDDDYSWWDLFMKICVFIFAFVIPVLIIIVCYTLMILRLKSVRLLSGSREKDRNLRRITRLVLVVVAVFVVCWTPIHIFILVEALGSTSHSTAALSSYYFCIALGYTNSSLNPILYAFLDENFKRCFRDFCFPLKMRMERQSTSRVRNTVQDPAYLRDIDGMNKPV
# Description: as §1, §2, §3
# [6] = CHO-K1 OPRM1 β-Arrestin cells, 90 minutes, read-out: EC50 on the β-arrestin signaling pathway
# [7] = HEK293/MOR/CRE cells, 5 h incubation, forskolin, read-out: EC50 on agonizing MOR receptor and affecting cAMP levels
# [8] = HEK293-hERG cells, automatic patch clamp, read-out: IC50 on blocking hERG potassium current
# [9] = HEK293/DOR/CRE cells, 4 h incubation, read-out: DOR EC50
# [10] = HEK293/KOR/CRE cells, 4 h incubation, read-out: KOR EC50
structure (smiles),measurement,setting,value
"CCN1CC[C@H](NCC[C@@]2(c3ccccn3)CCOC3(CCCC3)C2)c2ccccc21 [Example 1, (S)-1-ethyl-N-(2-((R)-9-(pyridin-2-yl)-6-oxaspiro[4.5]decan-9-yl)ethyl)-1,2,3,4-tetrahydroquinolin-4-amine]",EC50,[1]; [6],4 nM
same,Emax,[1],12%
same,EC50,[2]; [7],10 nM
same,Emax,[2],102%
same,IC50,[3]; [8],13000 nM
"O=C1CC[C@H](NCC[C@@]2(c3ccccn3)CCOC3(CCCC3)C2)c2ccccc21 [Example 11, (S)-4-((2-((R)-9-(pyridin-2-yl)-6-oxaspiro[4.5]decan-9-yl)ethyl)amino)-3,4-dihydronaphthalen-1(2H)-one]",EC50,[1],305 nM
same,Emax,[1],37%
same,EC50,[2],17 nM
same,Emax,[2],112%
same,EC50,[4],1920 nM
same,Emax,[4],80%
same,IC50,[3],4100 nM
same,EC50,[5],277 nM
same,Emax,[5],98%
"O[C@H]1CC[C@H](NCC[C@@]2(c3ccccn3)CCOC3(CCCC3)C2)c2ccccc21 [Example 12, (1S,4S)-4-((2-((R)-9-(pyridin-2-yl)-6-oxaspiro[4.5]decan-9-yl)ethyl)amino)-1,2,3,4-tetrahydronaphthalen-1-ol]",EC50,[2],2 nM
same,Emax,[2],125%
same,IC50,[3],10200 nM
"O[C@@H]1CC[C@H](NCC[C@@]2(c3ccccn3)CCOC3(CCCC3)C2)c2ccccc21 [Example 13, (1R,4S)-4-((2-((R)-9-(pyridin-2-yl)-6-oxaspiro[4.5]decan-9-yl)ethyl)amino)-1,2,3,4-tetrahydronaphthalen-1-ol]",EC50,[2],8 nM
same,Emax,[2],130%
same,IC50,[3],13500 nM
"CO[C@H]1CC[C@H](NCC[C@@]2(c3ccccn3)CCOC3(CCCC3)C2)c2ccccc21 [Example 14, (1S,4S)-4-methoxy-N-(2-((R)-9-(pyridin-2-yl)-6-oxaspiro[4.5]decan-9-yl)ethyl)-1,2,3,4-tetrahydronaphthalen-1-amine]",EC50,[1],26 nM
same,Emax,[1],24%
same,EC50,[2],3 nM
same,Emax,[2],109%
same,EC50,[4],1510 nM
same,Emax,[4],91%
same,IC50,[3],8600 nM
same,EC50,[5],1470 nM
same,Emax,[5],74%
"c1ccc([C@]2(CCN[C@H]3CCc4ccccc43)CCOC3(CCCC3)C2)nc1 [Example 16, (S)-N-(2-((R)-9-(pyridin-2-yl)-6-oxaspiro[4.5]decan-9-yl)ethyl)-2,3-dihydro-1H-inden-1-amine]",EC50,[1],94 nM
same,Emax,[1],9%
same,EC50,[2],9 nM
same,Emax,[2],122%
same,IC50,[3],10000 nM
"CCO[C@H]1CC[C@H](NCC[C@@]2(c3ccccn3)CCOC3(CCCC3)C2)c2ccccc21 [Example 19, (1S,4S)-4-ethoxy-N-(2-((R)-9-(pyridin-2-yl)-6-oxaspiro[4.5]decan-9-yl)ethyl)-1,2,3,4-tetrahydronaphthalen-1-amine]",EC50,[1],24 nM
same,Emax,[1],13%
same,EC50,[2],2 nM
same,Emax,[2],98%
same,EC50,[4],552 nM
same,Emax,[4],108%
same,IC50,[3],5900 nM
same,EC50,[5],862 nM
same,Emax,[5],96%
"c1ccc([C@]2(CCN[C@H]3CC[C@H](OCC4CC4)c4ccccc43)CCOC3(CCCC3)C2)nc1 [Example 20, (1S,4S)-4-(cyclopropylmethoxy)-N-(2-((R)-9-(pyridin-2-yl)-6-oxaspiro[4.5]decan-9-yl)ethyl)-1,2,3,4-tetrahydronaphthalen-1-amine]",EC50,[1]; [6],4 nM
same,Emax,[1],9%
same,EC50,[4]; [9],1520 nM
same,Emax,[4],118%
same,EC50,[5]; [10],710 nM
same,Emax,[5],103%
"FCCO[C@H]1CC[C@H](NCC[C@@]2(c3ccccn3)CCOC3(CCCC3)C2)c2ccccc21 [Example 21, (1S,4S)-4-(2-fluoroethoxy)-N-(2-((R)-9-(pyridin-2-yl)-6-oxaspiro[4.5]decan-9-yl)ethyl)-1,2,3,4-tetrahydronaphthalen-1-amine]",EC50,[2]; [7],5 nM
same,Emax,[2],110%
same,EC50,[4]; [9],1490 nM
same,Emax,[4],107%
same,IC50,[3]; [8],4200 nM
same,EC50,[5]; [10],1180 nM
same,Emax,[5],100%
"COC[C@H]1CC[C@H](NCC[C@@]2(c3ccccn3)CCOC3(CCCC3)C2)c2ccccc21 [Example 22, (1S,4S)-4-(methoxymethyl)-N-(2-((R)-9-(pyridin-2-yl)-6-oxaspiro[4.5]decan-9-yl)ethyl)-1,2,3,4-tetrahydronaphthalen-1-amine]",EC50,[1],41 nM
same,Emax,[1],18%
same,EC50,[2],4 nM
same,Emax,[2],103%
same,EC50,[4],2400 nM
same,Emax,[4],102%
same,IC50,[3],3800 nM
same,EC50,[5],3090 nM
same,Emax,[5],97%
"c1ccc([C@]2(CCN[C@H]3CCC4(SCCS4)c4ccccc43)CCOC3(CCCC3)C2)nc1 [Example 24, (S)-N-(2-((R)-9-(pyridin-2-yl)-6-oxaspiro[4.5]decan-9-yl)ethyl)-3′,4′-dihydro-2′H-spiro[[1,3]dithiolane-2,1′-naphthalen]-4′-amine]",EC50,[1]; [6],6 nM
same,Emax,[1],30%
same,EC50,[2]; [7],0.8 nM
same,Emax,[2],102%
same,IC50,[3]; [8],2500 nM
